Literature values as cited in patent US9775802B2, “Method for preparing suspensions of low-solubility materials” (Bausch & Lomb Incorporated, priority 2009, dated 2017).
Structures can show the parent of a compound that is named as a salt. Where two headings read alike, the source gives them in different places.

Conditions: for solubility in water, estimated: 'estimated to be'

**Q.** With CC[C@H]1OC(=O)[C@H](C)[C@@H](O[C@H]2C[C@@](C)(OC)[C@@H](O)[C@H](C)O2)[C@H](C)[C@@H](O[C@@H]2O[C@H](C)C[C@H](N(C)C)[C@H]2O)[C@](C)(O)C[C@@H](C)CN(C)[C@H](C)[C@@H](O)[C@]1(C)O [azithromycin dihydrate] as the molecule, how does the solubility in water (37° C.) read?
**A.** The solubility in water was “about 39 mg/mL”.

**Q.** For CC[C@H]1OC(=O)[C@H](C)[C@@H](O[C@H]2C[C@@](C)(OC)[C@@H](O)[C@H](C)O2)[C@H](C)[C@@H](O[C@@H]2O[C@H](C)C[C@H](N(C)C)[C@H]2O)[C@](C)(O)C[C@@H](C)CN(C)[C@H](C)[C@@H](O)[C@]1(C)O [azithromycin], which solubility in water (temperature not stated) is on record?
**A.** Its solubility in water is “about 0.5 mg/mL”.

**Q.** For C[C@@H]1C[C@H]2[C@@H]3CCC4=CC(=O)C=C[C@]4(C)[C@@]3(F)[C@@H](O)C[C@]2(C)[C@@]1(O)C(=O)COP(=O)(O)O [dexamethasone phosphate disodium salt], which “solubility in water (in words)” value is on record?
**A.** The value was “soluble in water”.

**Q.** For C[C@@H]1C[C@H]2[C@@H]3CCC4=CC(=O)C=C[C@]4(C)[C@@]3(F)[C@@H](O)C[C@]2(C)[C@@]1(O)C(=O)CO [dexamethasone], which solubility in water (25° C.) is on record?
**A.** Its solubility in water is “about 0.1 mg/mL”.

**Q.** For O=C(O)Cc1ccccc1Nc1c(Cl)cccc1Cl [diclofenac sodium salt], which solubility in water (temperature not stated) is on record?
**A.** Its solubility in water is “about 50 mg/mL”.

**Q.** Which “solubility in water, estimated” value does the source give for O=C(O)Cc1ccccc1Nc1c(Cl)cccc1Cl [diclofenac] here?
**A.** The value was “about 0.002 mg/mL”.

**Q.** Which “solubility in water, estimated” value does the source give for COc1c(N2C[C@@H]3CCCN[C@@H]3C2)c(F)cc2c(=O)c(C(=O)O)cn(C3CC3)c12 [moxifloxacin] here?
**A.** Its value is “about 0.17 mg/mL”.
